Values of other authors in patent US11246852B2, “Fast-acting plant-based medicinal compounds and nutritional supplements” (RECEPTOR HOLDINGS, INC., priority 2016, dated 2022).

CCCCCc1cc(O)c2c(c1)OC(C)(C)[C@@H]1CCC(C)=C[C@@H]21 [THC, delta-9-tetrahydrocannabinol]
appetite stimulant effect may continue for (after administration): ≥ 24 h
duration of action (after oral administration, psychoactive effects): 4 to 6 h
